# Source: paper PMC11012124, “Synthesis of Novel Triazine-Based Chalcones and 8,9-dihydro-7H-pyrimido[4,5-b][1,4]diazepines as Potential Leads in the Search of Anticancer, Antibacterial and Antifungal Agents” (International Journal of Molecular Sciences, 2024)
# What was measured:
# [1] = system: NCI-H226; assay: cells; conditions: Homo sapiens, NCI-H226, 48 h; for CC50: read-out: LC50
# [2] = system: SK-OV-3; assay: cells; conditions: Homo sapiens, SK-OV-3, 48 h; for CC50: read-out: LC50
# [3] = system: MDA-MB-435; assay: cells; conditions: Homo sapiens, MDA-MB-435, 48 h; for CC50: read-out: LC50
# [4] = system: HOP-62; assay: cells; conditions: Homo sapiens, HOP-62, 48 h; for CC50: read-out: LC50
# [5] = system: SW-620; assay: cells; conditions: Homo sapiens, SW-620, 48 h; for CC50: read-out: LC50
# [6] = system: ACHN; assay: cells; conditions: Homo sapiens, 48 h; for CC50: read-out: LC50
# [7] = Hemolytic activity, spectrophotometric; type: cell-based, human; conditions: human, human red blood cells (huRBC), 5% hematocrit, 200 μg/mL, 37 °C
# [8] = system: NCI-H322M; assay: cells; conditions: Homo sapiens, 48 h; for CC50: read-out: LC50
# [9] = system: TK-10; assay: cells; conditions: Homo sapiens, TK-10, 48 h; for CC50: read-out: LC50
# [10] = system: OVCAR-5; assay: cells; conditions: Homo sapiens, OVCAR-5, 48 h; for CC50: read-out: LC50
# [11] = system: NCI/ADR-RES; assay: cells; conditions: Homo sapiens, 48 h; for CC50: read-out: LC50
# [12] = system: BT-549; assay: cells; conditions: Homo sapiens, BT-549, 48 h; for CC50: read-out: LC50
# [13] = system: 60 cancer cell lines; assay: NCI-60 one-dose screen (10 μM); type: cell-based; conditions: Homo sapiens; one dose of 10 μM, mean over 60 cancer cell lines; read-out: Mean Growth Percent (MGP)
# Text: Additionally, the mean of the growth percentages (MGP) of each compound against all the 60 cancer cell lines is also reported, which is used as one of the selection criteria to continue with tests at five concentration doses.
# [14] = system: OVCAR-8; assay: cells; conditions: Homo sapiens, OVCAR-8, 48 h; for CC50: read-out: LC50
# [15] = system: RXF 393; assay: cells; conditions: Homo sapiens, RXF 393, 48 h; for CC50: read-out: LC50
# [16] = system: SR; assay: cells; conditions: Homo sapiens, 48 h; for CC50: read-out: LC50
# [17] = system: M. tuberculosis ATCC 27294; assay: Antitubercular broth microdilution MIC; type: cell-based; conditions: Mycobacterium tuberculosis; M. tuberculosis ATCC 27294 (H37Rv); read-out: Minimum inhibitory concentration (MIC)
# [18] = system: OVCAR-4; assay: cells; conditions: Homo sapiens, OVCAR-4, 48 h; for CC50: read-out: LC50
# [19] = system: SF-295; assay: cells; conditions: Homo sapiens, SF-295, 48 h; for CC50: read-out: LC50
# [20] = system: DU-145; assay: cells; conditions: Homo sapiens, DU-145, 48 h; for CC50: read-out: LC50
# [21] = system: MCF7; assay: cells; conditions: Homo sapiens, MCF7, 48 h; for CC50: read-out: LC50
# [22] = system: NCI-H23; assay: cells; conditions: Homo sapiens, NCI-H23, 48 h; for CC50: read-out: LC50
# [23] = system: RPMI-8226; assay: cells; conditions: Homo sapiens, RPMI-8226, 48 h; for CC50: read-out: LC50
# [24] = system: IGROV1; assay: cells; conditions: Homo sapiens, IGROV-1, 48 h; for CC50: read-out: LC50
# [25] = system: MALME-3M; assay: cells; conditions: Homo sapiens, 48 h; for CC50: read-out: LC50
# [26] = system: HCT-15; assay: cells; conditions: Homo sapiens, HCT-15, 48 h; for CC50: read-out: LC50
# [27] = system: N. gonorrhoeae ATCC 49226; assay: MIC on GC agar plates; type: cell-based, Neisseria gonorrhoeae; conditions: Neisseria gonorrhoeae, ATCC49226, read-out: MIC
# Method in brief: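 N. gonorrhoeae (1 × 10^4 CFU) was spotted onto IsoVitaleX-supplemented (1%) GC agar containing graded compound levels. The lowest inhibitory concentration was recorded as the MIC, with oxidase testing used to verify growth, and each assay was done in duplicate on at least two separate occasions.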
smiles,measurement,setting,value
CN(C)c1nc(NCCNS(=O)(=O)c2ccc(C(=O)/C=C/c3ccccc3)cc2)nc(Nc2ccc(F)cc2)n1 [24a],GI50,[1],5.22 µM
same,CC50,[1],57.3 µM
same,GI50,[2],13 µM
same,CC50,[2],68.1 µM
same,GI50,[3],7.44 µM
same,CC50,[3],59.8 µM
same,GI50,[4],11.8 µM
same,CC50,[4],60.6 µM
same,GI50,[5],5.56 µM
same,CC50,[5],54.3 µM
same,GI50,[6],4.92 µM
same,CC50,[6],43.5 µM
same,"hemolysis at 24 h, 200 µg/mL",[7],10.6%
same,GI50,[8],9.83 µM
same,CC50,[8],76.9 µM
same,GI50,[9],14.6 µM
same,CC50,[9],65.5 µM
same,GI50,[10],13.3 µM
same,CC50,[10],53.2 µM
same,GI50,[11],7.33 µM
same,CC50,[11],50.3 µM
same,GI50,[12],13.9 µM
same,CC50,[12],54.3 µM
same,activity at 10 µM,[13],13.6%
same,GI50,[14],12.2 µM
same,CC50,[14],57.1 µM
same,GI50,[15],2.94 µM
same,CC50,[15],39.9 µM
same,GI50,[16],2.58 µM
same,CC50,[16],> 100 µM
same,MIC,[17],25 mg/L
same,GI50,[18],4.39 µM
same,CC50,[18],99.3 µM
same,GI50,[19],6.96 µM
same,CC50,[19],44.5 µM
same,GI50,[20],12.1 µM
same,CC50,[20],53.2 µM
same,GI50,[21],1.99 µM
same,CC50,[21],8.23 µM
same,GI50,[22],10.1 µM
same,CC50,[22],50 µM
same,GI50,[23],3.04 µM
same,CC50,[23],> 100 µM
same,GI50,[24],11.2 µM
same,CC50,[24],50.6 µM
same,GI50,[25],12.6 µM
same,CC50,[25],54.5 µM
same,GI50,[26],2.04 µM
same,CC50,[26],7.25 µM
Cc1ccc(C2CC(c3ccc(S(=O)(=O)NCCNc4nc(Nc5ccc(F)cc5)nc(N(C)C)n4)cc3)=Nc3c(N)nc(N)nc3N2)cc1 (stereo not drawn) [31b],GI50,[1],> 100 µM
same,CC50,[1],> 100 µM
same,GI50,[2],> 100 µM
same,CC50,[2],> 100 µM
same,GI50,[3],8.79 µM
same,CC50,[3],> 100 µM
same,GI50,[4],> 100 µM
same,CC50,[4],> 100 µM
same,GI50,[5],8.04 µM
same,CC50,[5],> 100 µM
same,GI50,[6],> 100 µM
same,CC50,[6],> 100 µM
same,"hemolysis at 24 h, 200 µg/mL",[7],1.7%
same,GI50,[8],> 100 µM
same,CC50,[8],> 100 µM
same,GI50,[9],> 100 µM
same,CC50,[9],> 100 µM
same,GI50,[10],> 100 µM
same,CC50,[10],> 100 µM
same,GI50,[11],> 100 µM
same,CC50,[11],> 100 µM
same,GI50,[12],5.46 µM
same,CC50,[12],59.4 µM
same,activity at 10 µM,[13],48.4%
same,CC50,[14],> 100 µM
same,MIC,[27],8 mg/L
same,GI50,[15],2.27 µM
same,CC50,[15],9.12 µM
same,MIC,[17],0.6 mg/L
same,CC50,[18],> 100 µM
same,GI50,[19],6.6 µM
same,CC50,[19],> 100 µM
same,GI50,[20],> 100 µM
same,CC50,[20],> 100 µM
same,GI50,[21],3.08 µM
same,CC50,[21],> 100 µM
same,GI50,[22],78.8 µM
same,CC50,[22],> 100 µM
same,GI50,[23],2.94 µM
same,CC50,[23],> 100 µM
same,GI50,[24],64.4 µM
same,CC50,[24],> 100 µM
same,GI50,[25],4.65 µM
same,CC50,[25],33.2 µM
same,GI50,[26],4.95 µM
same,CC50,[26],> 100 µM
COc1cc(/C=C/C(=O)c2ccc(S(=O)(=O)NCCNc3nc(Nc4ccc(F)cc4)nc(N(C)C)n3)cc2)cc(OC)c1OC [24d],GI50,[1],4.47 µM
same,CC50,[1],> 100 µM
same,GI50,[2],21.8 µM
same,CC50,[2],> 100 µM
same,GI50,[3],2.8 µM
same,CC50,[3],93.9 µM
same,GI50,[4],14.1 µM
same,CC50,[4],59.9 µM
same,GI50,[5],1.95 µM
same,CC50,[5],7.43 µM
same,GI50,[6],5.13 µM
same,CC50,[6],60.4 µM
same,"hemolysis at 24 h, 200 µg/mL",[7],2.3%
same,GI50,[8],10.1 µM
same,CC50,[8],> 100 µM
same,GI50,[9],13.1 µM
same,CC50,[9],> 100 µM
same,GI50,[10],12.9 µM
same,CC50,[10],55.4 µM
same,GI50,[11],3.38 µM
same,CC50,[11],56.3 µM
same,GI50,[12],2.25 µM
same,CC50,[12],31.2 µM
same,activity at 10 µM,[13],-0.31%
same,GI50,[14],11.1 µM
same,CC50,[14],> 100 µM
same,GI50,[15],1.45 µM
same,CC50,[15],6.74 µM
same,GI50,[16],2.42 µM
same,CC50,[16],> 100 µM
same,MIC,[17],50 mg/L
same,GI50,[18],8.02 µM
same,CC50,[18],> 100 µM
same,GI50,[19],2.16 µM
same,CC50,[19],11.1 µM
same,GI50,[20],10.9 µM
same,CC50,[20],> 100 µM
same,GI50,[21],1.96 µM
same,CC50,[21],9.34 µM
same,GI50,[22],3.03 µM
same,CC50,[22],34.9 µM
same,GI50,[23],2.5 µM
same,CC50,[23],> 100 µM
same,GI50,[24],16.1 µM
same,CC50,[24],59.8 µM
same,GI50,[25],11.9 µM
same,CC50,[25],55.2 µM
same,GI50,[26],1.8 µM
same,CC50,[26],6.57 µM
